pIC50, pKd: −log10 of the molar value. Where “and” joins values, the source holds several entries; their conditions need not be identical. Identical values can stand only once. Like-named read-outs stand apart in the source and are kept apart here.
Key:
mice [1] = settings: mouse, in vivo
mice [2] = settings: mouse, in vivo; remark: listed apart in the source
mice [3] = settings: mouse, in vivo; remark: listed apart in the source
[4] = cited from earlier work
C57B1/6 mice [5] = settings: mouse, in vivo
C57B1/6 mice [6] = settings: mouse, in vivo; remark: listed apart in the source
LT or CT = settings: cited from earlier work
Y-1 adrenal cells = assay type: cell-based
C57B1/6 mice [7] = settings: mouse, in vivo; remark: listed apart in the source
C57B1/6 mice [8] = settings: mouse, in vivo; remark: listed apart in the source
C57B1/6 mice [9] = settings: mouse, in vivo; remark: listed apart in the source
C57B1/6 mice [10] = settings: mouse, in vivo; remark: listed apart in the source
C57B1/6 mice [11] = settings: mouse, in vivo; remark: listed apart in the source
Balb/c mice = settings: mouse, in vivo, po
mice [12] = settings: mouse, in vivo; remark: listed apart in the source
C57B1/6 mice [13] = settings: mouse, in vivo; remark: listed apart in the source

Molecule: cholera toxin [CT]
- TT IgG, Assay values (Elisa Units) Individual Mice (mice [1]): 71077 Elisa Units and 113082 Elisa Units and 75238 Elisa Units and 123721 Elisa Units and 61438 Elisa Units
- TT IgG, Geometric mean (mice [1]): 85603 Elisa Units
- fold higher antibody titers to TT than the non-adjuvanted vaccine (mice [1]): 426 fold
- inflammatory response after IM injection (mice [2]): muscle swelling
- TT IgG, Geometric mean (mice [3]): 95419 Elisa Units
- fold higher titers than the non-adjuvanted vaccine (mice [3]): 823 fold
- fold more active than CT/GM1 (mice [3]): 1.6 to 3 fold
- pKd [4]: 9.22
- TT IgG, Assay values (Elisa Units) Individual Mice (C57B1/6 mice [5]): 11222 Elisa Units and 14300 Elisa Units and 29533 Elisa Units and 63092 Elisa Units and 125687 Elisa Units
- TT IgG, Geometric mean (C57B1/6 mice [5]): 32734 Elisa Units
- fold greater antibody titers to TT than the non-adjuvanted vaccine (C57B1/6 mice [5]): 105 fold
- skin nodules / inflammatory response after intradermal injection (C57B1/6 mice [6]): skin nodules

Molecule: Gal-β1,3-GalNAc-β1,4-(NeuAc-α2,3)-Gal-β1,4-Glc-β1,1-ceramide [GM1]
- Diameter skin nodules, Average Mean ± SD (C57B1/6 mice [6]): 0 cm
- Diameter skin nodules, Individual Mice (C57B1/6 mice [6]): 0 cm
- skin nodules / inflammatory response after intradermal injection (C57B1/6 mice [6]): not inflammatory
- pKd (LT or CT; read-out: affinity): 8.00 to 10.00

Molecule: O=[N+]([O-])c1cccc(OC2OC(CO)C(O)C(O)C2O)c1 (stereo not drawn) [m-nitrophenyl α-galactoside]
- pIC50 (LT or CT): 3.15 to 3.22

Molecule: O=C(O)[C@H](O)[C@@H](O)[C@H](O)[C@H](O)CO[C@H]1O[C@H](CO)[C@H](O)[C@H](O)[C@H]1O [melibionic acid]
- pIC50 (LT or CT): 1.96 to 2.30

Molecule: Nc1ccc(OC2OC(CO)C(O)C(O)C2O)cc1 (stereo not drawn) [p-aminophenyl α-galactoside]
- pIC50 (LT or CT): 1.92 to 2.32

Molecule: Escherichia coli heat-labile enterotoxin [LT]
- rounding of cultured cells (Y-1 adrenal cells): 70-100%
- percentage of rounded cells (Y-1 adrenal cells; 0.05 ng/ml, 6-8 h): −−− (key: +++ 70-100% rounded cells; ++ 50-75%; + 25-50%; −−− <25%)
- percentage of rounded cells (Y-1 adrenal cells; 0.1 ng/ml, 6-8 h): −−− (key: +++ 70-100% rounded cells; ++ 50-75%; + 25-50%; −−− <25%)
- percentage of rounded cells (Y-1 adrenal cells; 0.2 ng/ml, 6-8 h): + (key: +++ 70-100% rounded cells; ++ 50-75%; + 25-50%; −−− <25%)
- percentage of rounded cells (Y-1 adrenal cells; 0.4 ng/ml, 6-8 h): ++ (key: +++ 70-100% rounded cells; ++ 50-75%; + 25-50%; −−− <25%)
- percentage of rounded cells (Y-1 adrenal cells; 0.8 ng/ml, 6-8 h): +++ (key: +++ 70-100% rounded cells; ++ 50-75%; + 25-50%; −−− <25%)
- percentage of rounded cells (Y-1 adrenal cells; 1.6 ng/ml, 6-8 h): +++ (key: +++ 70-100% rounded cells; ++ 50-75%; + 25-50%; −−− <25%)
- percentage of rounded cells (Y-1 adrenal cells; 3.1 ng/ml, 6-8 h): +++ (key: +++ 70-100% rounded cells; ++ 50-75%; + 25-50%; −−− <25%)
- percentage of rounded cells (Y-1 adrenal cells; 6.3 ng/ml, 6-8 h): +++ (key: +++ 70-100% rounded cells; ++ 50-75%; + 25-50%; −−− <25%)
- percentage of rounded cells (Y-1 adrenal cells; 12.5 ng/ml, 6-8 h): +++ (key: +++ 70-100% rounded cells; ++ 50-75%; + 25-50%; −−− <25%)
- percentage of rounded cells (Y-1 adrenal cells; 25 ng/ml, 6-8 h): +++ (key: +++ 70-100% rounded cells; ++ 50-75%; + 25-50%; −−− <25%)
- percentage of rounded cells (Y-1 adrenal cells; 50 ng/ml, 6-8 h): +++ (key: +++ 70-100% rounded cells; ++ 50-75%; + 25-50%; −−− <25%)
- percentage of rounded cells (Y-1 adrenal cells; 100 ng/ml, 6-8 h at 37° C.): +++ (key: +++ 70-100% rounded cells; ++ 50-75%; + 25-50%; −−− <25%)
- lymph node cell response to re-stimulation with OVA or LT (C57B1/6 mice [7]): did respond to in vitro re-stimulation with OVA or LT by producing IFN-γ and IL-4
- spleen cell IFN-γ response to re-stimulation (C57B1/6 mice [7]): did respond to re-stimulation by producing IFN-γ
- anti-LT antibody titers GMT (C57B1/6 mice [8]): 196,000
- Anti-OVA titers GMT (C57B1/6 mice [9]): 51,000
- anti-LT IgG titers GMT (C57B1/6 mice [9]): 30,000
- fold increase of Anti-OVA titers (C57B1/6 mice [9]): 37 fold
- inflammatory response after IM injection (mice [2]): swelling of the thigh muscle
- inflammatory response after SC injection (mice [2]; sc): formation of a large nodule
- examination of the injection sites (mice [3]): developed edema and inflammation at the site of injection
- pKd [4]: 9.15
- anti-OVA antibody titers GMT (C57B1/6 mice [10]): 32,000
- anti-TT IgG titers GMT (C57B1/6 mice [11]): 150,000
- anti-TT titers (C57B1/6 mice [11]): significantly increased
- TT IgG, Assay values (Elisa Units) Individual Mice (C57B1/6 mice [5]): 188314 Elisa Units and 222731 Elisa Units and 178753 Elisa Units and 88333 Elisa Units and 192934 Elisa Units and 201494 Elisa Units and 169482 Elisa Units and 379919 Elisa Units and 73992 Elisa Units and 615173 Elisa Units and 204102 Elisa Units and 146225 Elisa Units and 183724 Elisa Units and 323948 Elisa Units and 202170 Elisa Units and 185486 Elisa Units and 85832 Elisa Units and 163652 Elisa Units and 208284 Elisa Units and 83436 Elisa Units and 63293 Elisa Units and 50116 Elisa Units and 121818 Elisa Units and 176340 Elisa Units and 114780 Elisa Units and 131805 Elisa Units and 6246 Elisa Units and 11745 Elisa Units and 31797 Elisa Units
- anti-TT IgG GMT (C57B1/6 mice [5]): 282,000
- fold greater anti-TT IgG titers than the non-adjuvanted group (C57B1/6 mice [5]): 34 fold
- immune response to co-administered TT (C57B1/6 mice [5]): significantly enhanced
- histological examination of injection site (C57B1/6 mice [6]): elicited an inflammatory response that persisted for days
- mice with inflammatory response (C57B1/6 mice [6]): 4 of 7
- persistence of induration (C57B1/6 mice [6]): greater than 2 weeks
- skin nodules (incidence, words) (C57B1/6 mice [6]): did not cause skin nodules in six out of the seven injected mice
- skin nodules / inflammatory response after intradermal injection (C57B1/6 mice [6]): caused skin nodules in all mice
- toxin-induced inflammation (C57B1/6 mice [6]): completely abolished
- fold increase in G:C compared to the buffer control group (Balb/c mice): 2.4 fold
- times more IFNγ and IL4 producing lymphocytes compared to TT alone (mice [12]): 10 times
- Flu A IgG, Assay values (Elisa Units) Individual Mice (C57B1/6 mice [13]): 150 Elisa Units and 102 Elisa Units and 47 Elisa Units and 45 Elisa Units and 642 Elisa Units and 15498 Elisa Units and 3137 Elisa Units and 6852 Elisa Units and 18563 Elisa Units and 28151 Elisa Units
